Experimental data: ChEMBL document CHEMBL1208782, “Synthesis and pharmacological validation of a novel series of non-steroidal FXR agonists” (Bioorg Med Chem Lett, 2010)

Columns and labels:
Assay type in all cases: functional, cell-based
[1] = target: T1, Androgen receptor (Homo sapiens) (UniProt P10275); experiment: Agonist activity at androgen receptor-LBD expressed in HEK293 cells assessed as Gal4-DBD interaction by cellular mammalian one hybrid assay relative to androgen
T1 sequence (whole entry): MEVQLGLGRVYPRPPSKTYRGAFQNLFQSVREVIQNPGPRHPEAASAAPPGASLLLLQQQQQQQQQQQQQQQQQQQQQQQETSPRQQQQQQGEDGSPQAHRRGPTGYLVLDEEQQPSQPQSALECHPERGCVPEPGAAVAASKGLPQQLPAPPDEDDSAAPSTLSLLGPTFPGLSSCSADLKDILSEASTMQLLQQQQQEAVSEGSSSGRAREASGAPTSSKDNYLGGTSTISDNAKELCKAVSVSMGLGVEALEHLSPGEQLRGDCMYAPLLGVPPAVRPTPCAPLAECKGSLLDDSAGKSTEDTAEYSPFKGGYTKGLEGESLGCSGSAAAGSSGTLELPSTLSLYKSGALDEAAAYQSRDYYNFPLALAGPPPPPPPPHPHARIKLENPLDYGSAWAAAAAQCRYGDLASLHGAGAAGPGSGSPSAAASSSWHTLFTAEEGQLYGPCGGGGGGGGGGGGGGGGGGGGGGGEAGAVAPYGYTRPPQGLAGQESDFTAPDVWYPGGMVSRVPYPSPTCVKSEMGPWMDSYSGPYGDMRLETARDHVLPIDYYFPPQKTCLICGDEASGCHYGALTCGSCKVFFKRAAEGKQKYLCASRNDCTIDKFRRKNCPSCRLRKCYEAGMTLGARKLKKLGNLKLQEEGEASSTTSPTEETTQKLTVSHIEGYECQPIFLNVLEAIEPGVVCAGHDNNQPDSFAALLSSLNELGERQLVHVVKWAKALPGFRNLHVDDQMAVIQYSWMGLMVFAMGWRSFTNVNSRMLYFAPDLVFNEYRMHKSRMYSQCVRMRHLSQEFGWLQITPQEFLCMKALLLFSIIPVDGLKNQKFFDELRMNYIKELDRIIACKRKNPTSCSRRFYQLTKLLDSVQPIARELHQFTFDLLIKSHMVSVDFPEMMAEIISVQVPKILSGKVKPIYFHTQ

[2] = target: T2, Progesterone receptor (Homo sapiens) (UniProt P06401); experiment: Agonist activity at progesterone receptor-LBD expressed in HEK293 cells assessed as Gal4-DBD interaction by cellular mammalian one hybrid assay relative to progesterone
T2 sequence (whole entry): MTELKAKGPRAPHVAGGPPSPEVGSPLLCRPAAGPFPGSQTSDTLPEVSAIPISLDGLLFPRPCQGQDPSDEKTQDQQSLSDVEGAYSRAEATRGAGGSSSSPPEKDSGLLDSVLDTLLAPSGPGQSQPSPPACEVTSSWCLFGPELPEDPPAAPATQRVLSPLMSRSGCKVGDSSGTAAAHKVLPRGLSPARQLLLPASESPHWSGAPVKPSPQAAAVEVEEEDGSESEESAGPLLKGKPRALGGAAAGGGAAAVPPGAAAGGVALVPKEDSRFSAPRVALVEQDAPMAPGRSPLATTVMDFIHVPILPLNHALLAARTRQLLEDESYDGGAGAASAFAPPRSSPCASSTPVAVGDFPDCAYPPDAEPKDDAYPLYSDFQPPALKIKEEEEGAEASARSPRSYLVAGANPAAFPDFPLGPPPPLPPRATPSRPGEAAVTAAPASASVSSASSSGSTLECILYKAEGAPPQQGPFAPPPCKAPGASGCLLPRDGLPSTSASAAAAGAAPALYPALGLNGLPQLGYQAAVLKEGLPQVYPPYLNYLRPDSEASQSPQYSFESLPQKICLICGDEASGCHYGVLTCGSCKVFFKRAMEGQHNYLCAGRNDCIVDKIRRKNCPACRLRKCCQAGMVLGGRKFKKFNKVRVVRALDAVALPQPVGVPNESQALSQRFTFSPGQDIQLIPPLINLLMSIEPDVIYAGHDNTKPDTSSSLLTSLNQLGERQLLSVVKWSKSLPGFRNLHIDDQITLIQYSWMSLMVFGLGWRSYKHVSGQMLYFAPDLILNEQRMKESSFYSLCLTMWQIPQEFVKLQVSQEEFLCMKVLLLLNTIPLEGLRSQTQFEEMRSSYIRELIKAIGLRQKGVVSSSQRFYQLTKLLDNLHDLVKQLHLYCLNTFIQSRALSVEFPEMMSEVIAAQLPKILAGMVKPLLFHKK

Bile acid receptor = target: T3, Bile acid receptor (Homo sapiens, UniProt Q96RI1); experiment: Agonist activity at human […] FXR LBD expressed in HEK293 cells coexpressing GAL4-DNA bindig domain and pFRluc by mammalian one-hybrid assay; conditions: read-out: EC50
T3 sequence (Q96RI1 whole entry): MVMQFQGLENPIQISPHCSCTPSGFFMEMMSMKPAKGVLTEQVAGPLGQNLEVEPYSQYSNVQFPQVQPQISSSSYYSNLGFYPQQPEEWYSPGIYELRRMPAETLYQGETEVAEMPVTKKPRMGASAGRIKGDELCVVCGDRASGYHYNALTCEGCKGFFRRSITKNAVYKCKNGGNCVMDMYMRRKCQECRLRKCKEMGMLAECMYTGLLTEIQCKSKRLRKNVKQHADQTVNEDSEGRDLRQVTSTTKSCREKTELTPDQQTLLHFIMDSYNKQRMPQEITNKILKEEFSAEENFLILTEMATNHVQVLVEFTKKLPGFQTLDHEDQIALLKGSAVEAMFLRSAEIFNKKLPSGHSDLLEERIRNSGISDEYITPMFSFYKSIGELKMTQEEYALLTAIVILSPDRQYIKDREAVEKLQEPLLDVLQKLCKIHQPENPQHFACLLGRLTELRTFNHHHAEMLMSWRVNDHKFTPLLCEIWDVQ

[3] = target: T4, Estrogen receptor (Homo sapiens) (UniProt P03372); experiment: Agonist activity at ERalpha-LBD expressed in HEK293 cells assessed as Gal4-DBD interaction by cellular mammalian one hybrid assay relative to 17-beta-estradiol
T4 sequence (whole entry): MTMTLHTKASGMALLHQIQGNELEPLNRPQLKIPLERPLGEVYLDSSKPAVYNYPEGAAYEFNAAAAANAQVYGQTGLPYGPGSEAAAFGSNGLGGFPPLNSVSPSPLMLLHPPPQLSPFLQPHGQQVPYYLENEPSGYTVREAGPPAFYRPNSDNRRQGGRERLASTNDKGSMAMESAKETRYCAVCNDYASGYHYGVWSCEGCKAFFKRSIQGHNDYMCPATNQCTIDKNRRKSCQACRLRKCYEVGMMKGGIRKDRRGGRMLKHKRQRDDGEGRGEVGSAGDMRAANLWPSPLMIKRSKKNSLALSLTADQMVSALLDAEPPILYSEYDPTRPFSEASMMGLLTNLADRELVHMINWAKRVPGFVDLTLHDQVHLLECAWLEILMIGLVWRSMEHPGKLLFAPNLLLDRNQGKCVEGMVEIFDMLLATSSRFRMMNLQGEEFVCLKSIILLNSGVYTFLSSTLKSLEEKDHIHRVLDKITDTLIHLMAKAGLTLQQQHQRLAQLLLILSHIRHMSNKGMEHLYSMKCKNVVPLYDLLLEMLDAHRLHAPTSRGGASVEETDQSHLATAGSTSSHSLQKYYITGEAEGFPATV

Efficacy [1] [%]	Efficacy [2] [%]	EC50 (Bile acid receptor) [nM]	Efficacy [3] [%]	SMILES
0	0	30	0	CN(Cc1ccc(C(=O)O)cc1)c1ccc(OCc2c(-c3c(Cl)cccc3Cl)noc2C2CC2)nc1C(F)(F)F
0	0	90	0	CC(C)c1onc(-c2c(Cl)cccc2Cl)c1COc1ccc(N(C)Cc2ccc(C(=O)O)cc2)c(C(F)(F)F)n1
0	0	9	24	CN(Cc1cccc(C(=O)O)c1)c1ccc(OCc2c(-c3c(Cl)cccc3Cl)noc2C2CC2)nc1C(F)(F)F
